Reference: US20200239530A1, “COMPOUNDS AND METHODS OF MODULATING PROTEIN DEGRADATION” (Vividion Therapeutics, Inc., priority 2017, published 2020)

What was measured:
Experiment in all cases: Cysteine liganding, probe competition
Type in all cases: binding
[1] = biological target: T1, FBXO11 F-box only protein 11 (Homo sapiens, UniProt Q86XK2)
T1 construct: Cells were resuspended in cold PBS on ice and sonicated with a probe sonicator to achieve lysis; endogenous in cells
T1 sequence (Q86XK2 1-927): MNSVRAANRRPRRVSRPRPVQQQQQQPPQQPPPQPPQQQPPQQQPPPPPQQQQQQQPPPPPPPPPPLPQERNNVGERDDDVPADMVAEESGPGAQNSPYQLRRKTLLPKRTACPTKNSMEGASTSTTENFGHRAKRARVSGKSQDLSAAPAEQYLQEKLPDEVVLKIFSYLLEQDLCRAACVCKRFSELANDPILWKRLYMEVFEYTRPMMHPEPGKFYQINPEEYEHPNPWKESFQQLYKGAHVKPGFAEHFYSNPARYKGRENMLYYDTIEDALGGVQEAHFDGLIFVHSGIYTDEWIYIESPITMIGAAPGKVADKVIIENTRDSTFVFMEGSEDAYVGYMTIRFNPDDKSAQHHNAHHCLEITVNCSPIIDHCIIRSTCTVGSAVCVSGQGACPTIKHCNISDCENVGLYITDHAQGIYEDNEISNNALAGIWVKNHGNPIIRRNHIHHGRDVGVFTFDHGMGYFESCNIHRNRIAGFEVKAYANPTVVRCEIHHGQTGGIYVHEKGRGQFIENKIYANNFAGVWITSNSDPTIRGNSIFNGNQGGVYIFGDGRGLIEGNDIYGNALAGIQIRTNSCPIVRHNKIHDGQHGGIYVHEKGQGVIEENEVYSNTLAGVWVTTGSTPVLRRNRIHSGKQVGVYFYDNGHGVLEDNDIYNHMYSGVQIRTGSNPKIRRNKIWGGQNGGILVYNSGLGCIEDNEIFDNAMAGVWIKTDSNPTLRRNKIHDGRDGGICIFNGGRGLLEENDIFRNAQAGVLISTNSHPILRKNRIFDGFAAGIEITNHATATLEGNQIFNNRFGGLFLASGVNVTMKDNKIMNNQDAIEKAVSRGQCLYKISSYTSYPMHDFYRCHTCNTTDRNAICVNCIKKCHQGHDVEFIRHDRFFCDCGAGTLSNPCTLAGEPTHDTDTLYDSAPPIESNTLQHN
In short: (§1)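 Steps: sonicate cells in cold PBS; treat 5 mg/ml lysate with compound (25° C, 1 hr); add desthiobiotin iodoacetamide probe from a 10 mM stock (25° C, 1 hr); precipitate, reduce, alkylate, digest with trypsin; capture labelled peptides on streptavidin for analysis.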

HIST1H3J Histone H3.1 = biological target: T2, HIST1H3J Histone H3.1 (Homo sapiens, UniProt P68431); conditions: for Liganded: HIST1H3J Res# 111, uniprot P68431
T2 construct: Cells were resuspended in cold PBS on ice and sonicated with a probe sonicator to achieve lysis; endogenous in cells
In short: as §1

[2] = biological target: T3, RNF40 E3 ubiquitin-protein ligase BRE1B (Homo sapiens, UniProt O75150)
T3 construct: Cells were resuspended in cold PBS on ice and sonicated with a probe sonicator to achieve lysis; endogenous in cells
T3 sequence (O75150 whole entry): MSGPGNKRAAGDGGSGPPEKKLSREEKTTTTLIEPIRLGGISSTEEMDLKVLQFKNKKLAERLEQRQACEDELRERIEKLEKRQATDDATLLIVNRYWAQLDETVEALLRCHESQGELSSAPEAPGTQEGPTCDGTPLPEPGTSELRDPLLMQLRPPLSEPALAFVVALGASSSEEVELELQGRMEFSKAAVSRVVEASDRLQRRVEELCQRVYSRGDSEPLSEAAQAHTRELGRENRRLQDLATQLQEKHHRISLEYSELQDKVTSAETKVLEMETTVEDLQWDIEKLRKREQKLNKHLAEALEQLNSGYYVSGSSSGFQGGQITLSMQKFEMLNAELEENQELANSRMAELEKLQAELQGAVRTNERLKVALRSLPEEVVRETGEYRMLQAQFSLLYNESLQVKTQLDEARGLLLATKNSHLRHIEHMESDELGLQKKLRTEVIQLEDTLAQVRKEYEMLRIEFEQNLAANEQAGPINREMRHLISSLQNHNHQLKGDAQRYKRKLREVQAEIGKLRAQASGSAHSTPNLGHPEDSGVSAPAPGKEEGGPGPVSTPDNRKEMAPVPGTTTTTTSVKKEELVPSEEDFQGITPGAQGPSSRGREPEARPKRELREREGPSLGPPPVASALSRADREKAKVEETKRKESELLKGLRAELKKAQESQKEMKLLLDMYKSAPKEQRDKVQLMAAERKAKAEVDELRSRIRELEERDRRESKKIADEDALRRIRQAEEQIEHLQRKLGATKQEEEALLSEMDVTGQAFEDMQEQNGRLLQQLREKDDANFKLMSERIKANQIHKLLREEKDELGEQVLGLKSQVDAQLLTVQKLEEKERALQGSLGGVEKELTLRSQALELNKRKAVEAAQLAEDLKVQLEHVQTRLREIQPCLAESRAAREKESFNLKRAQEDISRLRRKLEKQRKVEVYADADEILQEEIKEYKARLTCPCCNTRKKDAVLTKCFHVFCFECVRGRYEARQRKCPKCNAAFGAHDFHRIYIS
In short: as §1

Row | Compound | Liganded ([1]; FBXO11 Res# 581, uniprot Q86XK2) | Liganded (HIST1H3J Histone H3.1) | percent_inhibition ([2]; 500 uM, UniProt O75150) | Liganded ([2]; RNF40 Res# 890, uniprot O75150) | 100 Max ([1]; uniprot Q86XK2) | 100 ave ([1]; uniprot Q86XK2) | 500 Max ([1]; uniprot Q86XK2) | 500 ave ([1]; uniprot Q86XK2) | 100 ave (HIST1H3J Histone H3.1; uniprot P68431) | 500 Max (HIST1H3J Histone H3.1; uniprot P68431) | 500 ave (HIST1H3J Histone H3.1; uniprot P68431) | 100 Max (HIST1H3J Histone H3.1; uniprot P68431, in % (unit assumed)) | 100 ave ([2]; uniprot O75150) | 500 Max ([2]; uniprot O75150) | 500 ave ([2]; uniprot O75150) | 100 Max ([2]; uniprot O75150, in % (unit assumed))
1 | COc1ccc2c(c1)CCCN2C(=O)CCl [KB02] | YES | YES | 24% | YES | – | – | – | – | – | – | – | – | – | – | – | –
2 | O=C(CCl)Nc1cc(C(F)(F)F)cc(C(F)(F)F)c1 [KBO3] | – | YES | – | – | −13.9 | −20.1 | 28.6 | 20.3 | 22.28 | 79.39 | 79.39 | 50.87 | −9.9 | 29.2 | 24.5 | −5.2
